Data on one molecule can be found in ChEMBL document CHEMBL1139192, “Novel bis(indolyl)maleimide pyridinophanes that are potent, selective inhibitors of glycogen synthase kinase-3” (Bioorg Med Chem Lett, 2007).

Activity calls are given as the source filed them. The calls are words filed in the database; no cut-off is given here.

In test [1] the target is Protein kinase C theta type (Homo sapiens, UniProt Q04759). Nature of the test: Inhibition of human PKCtheta.
For test [2], the target named is Ribosomal protein S6 kinase alpha-1 (Homo sapiens, UniProt Q15418). The experiment in a line: Inhibition of human Rsk1.
Sequence of Ribosomal protein S6 kinase alpha-1 (Q15418 whole entry): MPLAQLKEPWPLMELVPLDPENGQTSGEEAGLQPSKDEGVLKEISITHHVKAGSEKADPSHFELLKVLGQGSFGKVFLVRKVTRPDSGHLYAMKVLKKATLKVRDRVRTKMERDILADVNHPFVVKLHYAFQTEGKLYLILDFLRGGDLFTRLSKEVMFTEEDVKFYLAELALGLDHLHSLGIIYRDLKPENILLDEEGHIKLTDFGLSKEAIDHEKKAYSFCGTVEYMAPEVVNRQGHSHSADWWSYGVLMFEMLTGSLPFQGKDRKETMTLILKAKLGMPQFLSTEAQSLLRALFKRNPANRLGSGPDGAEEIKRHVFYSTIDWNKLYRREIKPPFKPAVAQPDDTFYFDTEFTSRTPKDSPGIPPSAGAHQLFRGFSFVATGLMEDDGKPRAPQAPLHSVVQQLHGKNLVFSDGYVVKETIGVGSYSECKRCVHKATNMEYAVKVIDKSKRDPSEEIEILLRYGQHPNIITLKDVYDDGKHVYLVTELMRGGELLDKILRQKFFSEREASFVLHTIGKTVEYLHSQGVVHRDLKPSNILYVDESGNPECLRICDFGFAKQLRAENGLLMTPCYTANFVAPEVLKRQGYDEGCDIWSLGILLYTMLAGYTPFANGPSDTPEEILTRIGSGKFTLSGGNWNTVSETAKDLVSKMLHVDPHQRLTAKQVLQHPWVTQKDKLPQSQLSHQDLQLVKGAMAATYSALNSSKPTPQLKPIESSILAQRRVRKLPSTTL
The species entered for another test is Homo sapiens. The experiment in a line: Selectivity for human recombinant GSK3-beta over human recombinant PKCbeta2.
For test [3], the target named is Cytoplasmic tyrosine-protein kinase BMX (Homo sapiens) (UniProt P51813). The experiment in a line: Inhibition of human BMX kinase at 1 uM relative to control; values are per cent of control.
Sequence of Cytoplasmic tyrosine-protein kinase BMX (Homo sapiens) (P51813 whole entry): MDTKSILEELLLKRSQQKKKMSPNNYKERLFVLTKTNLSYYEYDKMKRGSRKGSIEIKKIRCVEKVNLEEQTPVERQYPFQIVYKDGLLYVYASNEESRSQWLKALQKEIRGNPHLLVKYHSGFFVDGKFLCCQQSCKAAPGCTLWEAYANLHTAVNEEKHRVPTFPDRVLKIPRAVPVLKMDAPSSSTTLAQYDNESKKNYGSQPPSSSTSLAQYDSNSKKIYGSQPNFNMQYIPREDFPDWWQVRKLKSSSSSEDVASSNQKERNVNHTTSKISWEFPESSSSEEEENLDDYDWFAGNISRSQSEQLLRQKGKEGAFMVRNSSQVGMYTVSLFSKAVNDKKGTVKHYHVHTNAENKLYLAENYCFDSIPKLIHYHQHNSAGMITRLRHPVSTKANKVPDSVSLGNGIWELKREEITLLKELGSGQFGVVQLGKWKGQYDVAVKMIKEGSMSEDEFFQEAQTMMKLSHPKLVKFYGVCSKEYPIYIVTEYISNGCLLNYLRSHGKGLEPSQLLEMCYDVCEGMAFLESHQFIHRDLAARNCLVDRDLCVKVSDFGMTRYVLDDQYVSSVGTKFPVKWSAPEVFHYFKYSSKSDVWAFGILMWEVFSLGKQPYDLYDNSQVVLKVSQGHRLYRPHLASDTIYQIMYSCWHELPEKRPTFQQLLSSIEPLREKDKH
The target in test [4] is Ribosomal protein S6 kinase alpha-5 (Homo sapiens, UniProt O75582). Nature of the test: Inhibition of human MSK1.
Sequence of Ribosomal protein S6 kinase alpha-5 (O75582 whole entry): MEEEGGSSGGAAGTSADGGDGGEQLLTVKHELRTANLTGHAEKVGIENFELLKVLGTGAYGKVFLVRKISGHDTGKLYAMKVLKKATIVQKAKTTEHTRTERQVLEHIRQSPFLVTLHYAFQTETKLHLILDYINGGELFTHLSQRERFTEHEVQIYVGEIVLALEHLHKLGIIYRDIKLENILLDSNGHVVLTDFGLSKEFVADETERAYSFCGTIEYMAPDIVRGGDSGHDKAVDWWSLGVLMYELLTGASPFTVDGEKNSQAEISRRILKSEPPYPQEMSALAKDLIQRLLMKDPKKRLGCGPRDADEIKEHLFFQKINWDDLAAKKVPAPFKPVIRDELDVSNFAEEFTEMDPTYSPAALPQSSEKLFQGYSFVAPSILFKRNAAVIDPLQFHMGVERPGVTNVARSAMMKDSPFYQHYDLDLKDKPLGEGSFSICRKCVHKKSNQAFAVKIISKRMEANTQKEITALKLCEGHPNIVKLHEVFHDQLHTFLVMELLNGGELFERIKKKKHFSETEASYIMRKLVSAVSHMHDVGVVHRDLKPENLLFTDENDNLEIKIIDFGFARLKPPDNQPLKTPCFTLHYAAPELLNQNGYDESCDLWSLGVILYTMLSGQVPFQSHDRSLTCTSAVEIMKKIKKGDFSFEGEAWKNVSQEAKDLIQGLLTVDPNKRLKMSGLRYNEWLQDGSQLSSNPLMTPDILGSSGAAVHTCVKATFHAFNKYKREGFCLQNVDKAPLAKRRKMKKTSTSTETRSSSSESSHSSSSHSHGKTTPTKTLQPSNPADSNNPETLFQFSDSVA
Test [5] concerns the target T1, BDNF/NT-3 growth factors receptor (Homo sapiens, UniProt Q16620). Nature of the test: Inhibition of human TrkB at 1 uM relative to control.
Target sequence in this assay (Q16620 32-822 limits assumed): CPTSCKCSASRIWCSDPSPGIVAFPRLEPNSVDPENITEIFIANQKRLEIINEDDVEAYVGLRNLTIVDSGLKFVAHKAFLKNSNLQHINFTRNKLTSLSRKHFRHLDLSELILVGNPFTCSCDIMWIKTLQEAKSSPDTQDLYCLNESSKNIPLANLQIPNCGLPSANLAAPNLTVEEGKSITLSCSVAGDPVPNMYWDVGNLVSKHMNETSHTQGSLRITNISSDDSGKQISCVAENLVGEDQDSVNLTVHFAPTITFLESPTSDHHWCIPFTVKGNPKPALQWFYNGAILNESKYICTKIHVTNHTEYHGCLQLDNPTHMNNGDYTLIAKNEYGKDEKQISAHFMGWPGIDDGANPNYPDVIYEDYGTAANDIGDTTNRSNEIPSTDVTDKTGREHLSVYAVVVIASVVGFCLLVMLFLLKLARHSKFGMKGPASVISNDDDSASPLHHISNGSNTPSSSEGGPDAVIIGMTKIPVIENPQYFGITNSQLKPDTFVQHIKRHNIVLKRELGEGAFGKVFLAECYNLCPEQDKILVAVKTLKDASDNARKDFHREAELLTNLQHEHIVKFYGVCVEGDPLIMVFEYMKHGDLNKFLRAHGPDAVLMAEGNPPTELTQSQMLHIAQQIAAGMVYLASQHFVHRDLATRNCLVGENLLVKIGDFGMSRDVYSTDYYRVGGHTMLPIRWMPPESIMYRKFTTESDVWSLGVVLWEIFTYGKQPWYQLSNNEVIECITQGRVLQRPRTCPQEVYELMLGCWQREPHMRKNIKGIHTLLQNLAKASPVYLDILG
The target in test [6] is T1, BDNF/NT-3 growth factors receptor. The experiment in a line: Inhibition of human TrkB.
Target sequence in this assay (Q16620 whole entry): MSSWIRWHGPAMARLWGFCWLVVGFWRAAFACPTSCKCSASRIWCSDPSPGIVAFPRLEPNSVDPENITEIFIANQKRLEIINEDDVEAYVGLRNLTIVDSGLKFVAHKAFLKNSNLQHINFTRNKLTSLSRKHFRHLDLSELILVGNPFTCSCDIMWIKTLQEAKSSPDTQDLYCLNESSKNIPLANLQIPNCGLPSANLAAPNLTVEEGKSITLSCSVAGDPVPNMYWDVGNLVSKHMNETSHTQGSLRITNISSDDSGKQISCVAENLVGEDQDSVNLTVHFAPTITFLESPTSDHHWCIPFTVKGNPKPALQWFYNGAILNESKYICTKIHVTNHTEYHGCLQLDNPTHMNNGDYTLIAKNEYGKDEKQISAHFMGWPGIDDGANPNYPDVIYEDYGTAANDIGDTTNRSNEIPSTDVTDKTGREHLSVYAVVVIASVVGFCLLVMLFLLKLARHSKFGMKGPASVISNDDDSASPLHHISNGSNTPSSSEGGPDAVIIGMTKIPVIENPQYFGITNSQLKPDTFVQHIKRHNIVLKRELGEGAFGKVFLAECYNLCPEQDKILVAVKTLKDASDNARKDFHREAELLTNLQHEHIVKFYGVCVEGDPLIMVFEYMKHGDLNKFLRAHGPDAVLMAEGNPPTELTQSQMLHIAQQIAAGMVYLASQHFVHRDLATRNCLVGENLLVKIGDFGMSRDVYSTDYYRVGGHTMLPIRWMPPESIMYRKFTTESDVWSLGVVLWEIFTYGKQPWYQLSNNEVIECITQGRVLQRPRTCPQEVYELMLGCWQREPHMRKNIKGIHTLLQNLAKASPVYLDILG

Sequence of Protein kinase C theta type (Q04759 whole entry): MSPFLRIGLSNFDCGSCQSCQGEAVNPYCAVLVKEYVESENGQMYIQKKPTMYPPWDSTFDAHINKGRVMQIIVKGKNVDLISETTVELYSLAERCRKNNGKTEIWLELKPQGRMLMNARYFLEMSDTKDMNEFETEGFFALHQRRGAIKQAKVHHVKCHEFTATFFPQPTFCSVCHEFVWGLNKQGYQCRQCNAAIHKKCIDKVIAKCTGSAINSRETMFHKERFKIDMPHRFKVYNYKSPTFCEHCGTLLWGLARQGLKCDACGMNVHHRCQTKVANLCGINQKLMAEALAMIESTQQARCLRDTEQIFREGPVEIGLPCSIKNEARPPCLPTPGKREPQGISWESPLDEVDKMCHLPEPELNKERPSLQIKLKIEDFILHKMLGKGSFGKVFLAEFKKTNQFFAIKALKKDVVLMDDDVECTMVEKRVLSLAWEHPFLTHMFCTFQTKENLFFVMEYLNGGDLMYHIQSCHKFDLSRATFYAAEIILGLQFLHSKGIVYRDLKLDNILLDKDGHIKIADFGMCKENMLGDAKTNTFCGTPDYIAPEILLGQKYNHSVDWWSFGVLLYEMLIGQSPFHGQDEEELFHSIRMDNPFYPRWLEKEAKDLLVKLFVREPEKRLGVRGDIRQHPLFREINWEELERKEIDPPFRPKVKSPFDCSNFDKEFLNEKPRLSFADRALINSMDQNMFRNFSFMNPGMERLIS

Broadly, the IC50 is the concentration that gives 50% inhibition. High values mean weaker potency, low ones greater potency. A word on the residual activity: it is the signal under treatment as a percentage of the control signal. `CN(C)c1nc2ccc1CCCn1cc(c3ccccc31)C1=C(C(=O)NC1=O)c1cn(c3ccccc13)CC2`: the IC50 in test [1] is 98 nM; in test [2], 1900 nM; in test [4], 510 nM; in test [6] it was above 3000 nM. The Ratio IC50 in the test listed under Homo sapiens turned out to be 460. Further, the residual activity in test [3] was found to be 101%. In test [5], the result was inactive.
